Test results published in PMC8748767 (Nature Communications, 2022).
Values joined by “and” are separate entries in the source; they are usually repeats but may differ in a detail not shown here. Identical values can stand only once. Like-named read-outs stand apart in the source and are kept apart here.

What was measured:
[1] = molecular target: THS40p (S40 phosphorylated human TH) (Homo sapiens, UniProt P07101); experiment: biochemical
Experimental: TH was phosphorylated on S40 (control without kinase)[3], using the catalytic subunit of cAMP-dependent protein kinase (CatPKA, kind gift from S.O. Døskeland[64]). TH (4 mg/ml) was assayed in 50 mM Na-β-glycerophosphate pH 7.5, 1 mM DTT, 0.1 mM EGTA, 1x protease inhibitor cocktail (without EDTA, Pierce), 0.5 mM ATP, 5 mM MgCl2 and incubated with the catalytic subunit of CatPKA (200 nM, diluted from 20 µM in 60% glycerol, 0.5 mg/ml soya bean trypsin inhibitor) for 30 min at 25 °C. […] After phosphorylation, H89 (Sigma) (5 µM) was added and the samples were exchanged into 20 mM Hepes pH 7.0, 200 mM NaCl.
(§1) The activity of purified TH and truncated forms was assayed at 37 °C[7]. The purified enzymes were kept on ice and diluted with 0.5% (w/v) bovine serum albumin in 20 mM Na-Hepes pH 7, 200 mM NaCl and centrifuged at 10,000 × g for 5 min at 4 °C. […] TH was added to a final concentration of 1 µg/ml (17 nM subunit) and preincubated at 37 °C for 1 min. […] Protein was removed by precipitation at −20 °C for 90 min followed by centrifugation at 20,000 × g for 14 min at 4 °C. The amount of L-Dopa in the supernatant was determined using a 1200 series high performance liquid chromatography (HPLC) system (Agilent technologies). The chromatographic separation was obtained using an Agilent Zorbax 300-SCX column with 20 mM HAc pH 3.5, 2% (v/v) propanol as mobile phase at a flow rate of 3 ml/min. The fluorescence detector was set to λex = 280 nm and λem = 314 nm.
Statistical analyses were performed with Graphpad Prism software version 8.3.0. For SRCD, DSC and TH activity measurements, three enzyme samples from independent protein purifications were measured and the mean ± SD (standard deviation) was calculated. The homogeneity of variances was confirmed by Brown-Forsythe tests and multiple comparisons were made using one-way analysis of variance (ANOVA) followed by a post hoc HSD Tukey test. […]

THNΔ43 = molecular target: T1, THNΔ43 (Homo sapiens, UniProt P07101); experiment: Differential scanning calorimetry (DSC), thermal stability with DA, THNΔ43; type: binding
T1 construct: His-MBP (TEV site) (N, cleaved yes); made in house
T1 sequence (P07101 75-528 limits assumed, stated change not applied): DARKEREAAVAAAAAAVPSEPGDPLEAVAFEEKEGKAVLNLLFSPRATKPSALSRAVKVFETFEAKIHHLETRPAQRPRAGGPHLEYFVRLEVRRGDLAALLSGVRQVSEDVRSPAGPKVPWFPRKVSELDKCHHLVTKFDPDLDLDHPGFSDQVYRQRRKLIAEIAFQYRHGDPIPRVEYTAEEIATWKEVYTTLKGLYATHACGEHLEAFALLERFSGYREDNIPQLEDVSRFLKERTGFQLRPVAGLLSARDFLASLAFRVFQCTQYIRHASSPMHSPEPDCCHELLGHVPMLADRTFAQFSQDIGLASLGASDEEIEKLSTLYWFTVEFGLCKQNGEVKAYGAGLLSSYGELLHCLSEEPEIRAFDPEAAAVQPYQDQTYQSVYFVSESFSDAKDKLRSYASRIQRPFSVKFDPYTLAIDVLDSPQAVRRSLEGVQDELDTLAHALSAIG
Experimental: (§2) In all experiments, 9 μM TH in 20 mM Na-Hepes pH 7, 200 mM NaCl was used, with the same buffer as reference, heating from 25 to 75 °C at a scan rate of 200 °C/h.

[2] = molecular target: T2, full-length human TH (TH1) (Homo sapiens, UniProt P07101); experiment: biochemical; settings: for IC50: mean ± SD, n = 3, 37 °C, 50 µM L-Tyr, 200 µM BH4
T2 sequence (P07101 1-497 isoform P07101-3): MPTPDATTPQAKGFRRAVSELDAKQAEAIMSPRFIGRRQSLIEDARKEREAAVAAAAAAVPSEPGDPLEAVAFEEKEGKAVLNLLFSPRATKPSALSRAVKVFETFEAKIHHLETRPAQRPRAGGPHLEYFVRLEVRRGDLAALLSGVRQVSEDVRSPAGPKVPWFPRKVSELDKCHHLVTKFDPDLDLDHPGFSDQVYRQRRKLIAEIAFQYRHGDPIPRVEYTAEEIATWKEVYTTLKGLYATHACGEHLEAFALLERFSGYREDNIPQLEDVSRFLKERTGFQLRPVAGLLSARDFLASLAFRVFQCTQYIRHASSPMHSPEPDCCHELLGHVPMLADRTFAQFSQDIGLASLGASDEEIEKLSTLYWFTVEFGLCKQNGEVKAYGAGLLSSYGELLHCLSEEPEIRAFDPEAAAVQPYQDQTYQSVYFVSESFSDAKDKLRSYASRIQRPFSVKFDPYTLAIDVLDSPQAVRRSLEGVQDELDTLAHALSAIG
Experimental: as §1
(§3) Statistical analyses were performed with Graphpad Prism software version 8.3.0. For SRCD, DSC and TH activity measurements, three enzyme samples from independent protein purifications were measured and the mean ± SD (standard deviation) was calculated. The homogeneity of variances was confirmed by Brown-Forsythe tests and multiple comparisons were made using one-way analysis of variance (ANOVA) followed by a post hoc HSD Tukey test. […] The individual curves were fitted to a four-parameter logistic curve by the [Inhibitor] vs. response—Variable slope equation (y = min + ((max − min)/(1 + IC50/X)^Hill Slope) in Graphpad and the mean IC50 ± SD reported.

THNΔ35 = molecular target: T3, THNΔ35 (Homo sapiens, UniProt P07101); experiment: Differential scanning calorimetry (DSC), thermal stability with DA, THNΔ35; type: binding
T3 construct: His-MBP (TEV site) (N, cleaved yes); made in house
T3 sequence (P07101 67-528 limits assumed, stated change not applied): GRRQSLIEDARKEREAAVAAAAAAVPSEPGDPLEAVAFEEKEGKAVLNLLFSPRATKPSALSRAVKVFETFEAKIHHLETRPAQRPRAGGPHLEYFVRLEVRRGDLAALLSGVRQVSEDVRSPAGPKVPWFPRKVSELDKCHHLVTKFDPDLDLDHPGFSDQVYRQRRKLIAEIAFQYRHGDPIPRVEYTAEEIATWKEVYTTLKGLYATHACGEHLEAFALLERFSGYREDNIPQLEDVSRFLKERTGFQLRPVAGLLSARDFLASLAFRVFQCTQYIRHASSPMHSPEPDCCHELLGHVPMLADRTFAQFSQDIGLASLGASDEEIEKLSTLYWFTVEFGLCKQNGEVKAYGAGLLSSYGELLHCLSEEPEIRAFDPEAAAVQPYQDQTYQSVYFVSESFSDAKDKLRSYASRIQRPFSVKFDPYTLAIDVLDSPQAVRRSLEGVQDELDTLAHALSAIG
Experimental: as §2

THNΔ70 = molecular target: T4, THNΔ70 (Homo sapiens, UniProt P07101); experiment: Differential scanning calorimetry (DSC), thermal stability with DA, THNΔ70; type: binding
T4 construct: His-MBP (TEV site) (N, cleaved yes); made in house
T4 sequence (P07101 102-528 limits assumed, stated change not applied): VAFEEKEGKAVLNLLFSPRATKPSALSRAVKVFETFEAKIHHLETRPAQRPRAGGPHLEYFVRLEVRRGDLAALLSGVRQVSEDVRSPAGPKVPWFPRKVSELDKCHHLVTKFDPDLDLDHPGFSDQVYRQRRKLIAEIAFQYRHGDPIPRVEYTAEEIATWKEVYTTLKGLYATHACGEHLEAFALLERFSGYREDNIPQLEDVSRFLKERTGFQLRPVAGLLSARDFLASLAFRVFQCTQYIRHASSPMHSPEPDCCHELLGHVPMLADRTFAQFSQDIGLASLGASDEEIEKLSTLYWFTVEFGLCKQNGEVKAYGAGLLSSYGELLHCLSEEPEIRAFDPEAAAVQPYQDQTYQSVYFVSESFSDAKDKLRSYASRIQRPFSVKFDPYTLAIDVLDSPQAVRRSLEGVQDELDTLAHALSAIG
Experimental: as §2

[3] = molecular target: TH, THNΔ35, THNΔ43, THNΔ70, THS40p (Homo sapiens, UniProt P07101); settings: far-UV SRCD, two-fold molar ratio of DA
TH, THNΔ35, THNΔ43, THNΔ70, THS40p, sequence (P07101 1-497 isoform P07101-3): as the sequence (P07101 1-497 isoform P07101-3) above
Experimental: SRCD spectra were collected as from 280 to 170 nm (3 scans averaged) at 25 °C on the AU-UV beamline at ASTRID2, part of the Institute for Storage Rings (ISA) facility at the University of Aarhus, Denmark. […] The path length of the cell was confirmed using an interferometry method and found to be 100.1 µm. The protein concentration was measured using Abs280nm prior to the measurements and more accurately by A205nm from the absorption spectra measured simultaneously with the CD spectra, using the respective theoretical extinction coefficients[65]. The A205nm measurements were used in the conversion of raw CD units to ∆ε(M^−1cm^−1) values. Secondary structure content was determined in the 250–180 nm range using the BeStSel algorithm[66].

[4] = molecular target: THNΔ43 (human TH lacking the N-terminal 43 residues) (Homo sapiens, UniProt P07101); experiment: Assay of TH activity and inhibition by DA, deletion mutant THNΔ43; type: biochemical
THNΔ43 (human TH lacking the N-terminal 43 residues), sequence (P07101 75-528 limits assumed, stated change not applied): as the sequence (P07101 75-528 limits assumed, stated change not applied) above
Experimental: as §1, §3

[5] = molecular target: THNΔ35 (human TH with the first 35 residues deleted) (Homo sapiens, UniProt P07101); experiment: Assay of TH activity and inhibition by DA, deletion mutant THNΔ35; type: biochemical
THNΔ35 (human TH with the first 35 residues deleted), sequence (P07101 67-528 limits assumed, stated change not applied): as the sequence (P07101 67-528 limits assumed, stated change not applied) above
Experimental: as §1, §3

[6] = molecular target: T2, full-length human TH (TH1); experiment: Differential scanning calorimetry (DSC), thermal stability with DA, TH; type: binding
Experimental: as §2

[7] = molecular target: THNΔ70 (human TH with the entire N-terminal removed) (Homo sapiens, UniProt P07101); experiment: Assay of TH activity and inhibition by DA, deletion mutant THNΔ70; type: biochemical
THNΔ70 (human TH with the entire N-terminal removed), sequence (P07101 102-528 limits assumed, stated change not applied): as the sequence (P07101 102-528 limits assumed, stated change not applied) above
Experimental: as §1, §3

[8] = individual samples (source data Sup Table 9)

THS40p (S40 phosphorylated human TH), sequence (P07101 1-497 isoform P07101-3): as the sequence (P07101 1-497 isoform P07101-3) above

`NCCc1ccc(O)c(O)c1` [DA, dopamine] was tested, and the remaining activity at 1000 µM ([1]; 5 min, read-out: Relative TH activity, THS40p, 1000.00 µM dopamine, relative to mean activity with 0 µM DA, replicates) was 0%, the IC50 ([1]; Dopamine IC50, THS40p, source data Fig 5f, SEM in a column of its own) was 12.4 µM and the IC50 ([1]; THS40p, mean ± SD, n = 3, 37 °C, 50 µM L-Tyr, 200 µM BH4, read-out: IC50 for DA inhibition of TH activity) was 12.4 ± 2.3 µM. For the same compound, the “Tonset with DA” value (THNΔ43; THNΔ43 + two-fold molar ratio of DA, mean ± SD, without DA 43.3 ± 0.9) was 43.5 ± 0.5 °C, the “Tmax with DA” value (THNΔ43; THNΔ43 + two-fold molar ratio of DA, mean ± SD, without DA 54.3 ± 1.7) was 56.5 ± 0.4 °C and the “T max, THNΔ43+DA” value (THNΔ43; [8]) was 56.94 °C and 56.71 °C and 56.44 °C and 56.11 °C. For the same compound, the “T onset, THNΔ43+DA” value (THNΔ43; [8]) was 43.98 °C and 42.91 °C and 43.13 °C and 43.87 °C and 43.53 °C, the IC50 ([2]; IC50 for DA inhibition of TH activity) was 0.49 ± 0.04 µM and the IC50 ([2]; read-out: IC50 for DA inhibition of TH activity) was ~0.5 µM. It also gave a remaining activity at 0.08 µM ([2]; read-out: Relative TH activity, TH, 0.08 µM dopamine, relative to mean activity with 0 µM DA, replicates) of 102%, a remaining activity at 0.63 µM ([2]; read-out: Relative TH activity, TH, 0.63 µM dopamine, relative to mean activity with 0 µM DA, replicates) of 48.2% and a remaining activity at 5 µM ([2]; read-out: Relative TH activity, TH, 5.00 µM dopamine, relative to mean activity with 0 µM DA, replicates) of 10%. The remaining activity at 10 µM ([2]; read-out: Relative TH activity, TH, 10.00 µM dopamine, relative to mean activity with 0 µM DA, replicates) was 6.24%, the “Tonset with DA” value (THNΔ35; THNΔ35 + two-fold molar ratio of DA, mean ± SD, without DA 37.5 ± 1.2) was 39.6 ± 0.3 °C and the “Tmax with DA” value (THNΔ35; THNΔ35 + two-fold molar ratio of DA, mean ± SD, without DA 51.7 ± 0.7) was 54.9 ± 1.0 °C. The “T max, THNΔ35+DA” value (THNΔ35; [8]) was 56.43 °C and 54.75 °C and 54.43 °C and 54.1 °C, the “T onset, THNΔ35+DA” value (THNΔ35; [8]) was 39.27 °C and 39.93 °C and 39.71 °C and 39.61 °C and the “Tonset with DA” value (THNΔ70; THNΔ70 + two-fold molar ratio of DA, mean ± SD, without DA 45.0 ± 0.5) was 45.6 ± 0.6 °C. The “Tmax with DA” value (THNΔ70; THNΔ70 + two-fold molar ratio of DA, mean ± SD, without DA 56.0 ± 0.1) was 56.4 ± 0.2 °C, the “T max, THNΔ70+DA” value (THNΔ70; [8]) was 56.38 °C and 56.21 °C and 56.6 °C and the “T onset, THNΔ70+DA” value (THNΔ70; [8]) was 45.36 °C and 45.19 °C and 46.36 °C. For the same compound, the “Effect of incubation with DA on secondary structure (helix content) of TH” value [3] was “no increase in helix content”, the IC50 ([4]; THNΔ43, mean ± SD, n = 3, 37 °C, 50 µM L-Tyr, 200 µM BH4) was 18.1 ± 1 µM and the remaining activity at 0.2 µM ([4]; read-out: Relative TH activity, THNΔ43, 0.20 µM dopamine, relative to mean activity with 0 µM DA, replicates) was 105%. The remaining activity at 6.25 µM ([4]; read-out: Relative TH activity, THNΔ43, 6.25 µM dopamine, relative to mean activity with 0 µM DA, replicates) was 73.9%, the remaining activity at 12.49 µM ([4]; read-out: Relative TH activity, THNΔ43, […] µM dopamine, relative to mean activity with 0 µM DA, replicates) was 59.8% and the remaining activity at 24.98 µM ([4]; read-out: Relative TH activity, THNΔ43, 24.98 µM dopamine, relative to mean activity with 0 µM DA, replicates) was 43.9%. It also gave a remaining activity at 49.97 µM ([4]; read-out: Relative TH activity, THNΔ43, 49.97 µM dopamine, relative to mean activity with 0 µM DA, replicates) of 28.7%, a remaining activity at 199.88 µM ([4]; read-out: Relative TH activity, THNΔ43, 199.88 µM dopamine, relative to mean activity with 0 µM DA, replicates) of 11.8% and an IC50 ([5]; THNΔ35, mean ± SD, n = 3, 37 °C, 50 µM L-Tyr, 200 µM BH4) of 0.22 ± 0.02 µM. For the same compound, the remaining activity at 0.05 µM ([5]; read-out: Relative TH activity, THNΔ35, 0.05 µM dopamine, relative to mean activity with 0 µM DA, replicates) was 89.3%, the remaining activity at 0.1 µM ([5]; read-out: Relative TH activity, THNΔ35, 0.10 µM dopamine, relative to mean activity with 0 µM DA, replicates) was 73.8% and the remaining activity at 0.2 µM ([5]; read-out: Relative TH activity, THNΔ35, 0.20 µM dopamine, relative to mean activity with 0 µM DA, replicates) was 56.1%. The remaining activity at 0.78 µM ([5]; read-out: Relative TH activity, THNΔ35, […] µM dopamine, relative to mean activity with 0 µM DA, replicates) was 29.7%, the remaining activity at 6.25 µM ([5]; read-out: Relative TH activity, THNΔ35, 6.25 µM dopamine, relative to mean activity with 0 µM DA, replicates) was 8.14% and the remaining activity at 25 µM ([5]; read-out: Relative TH activity, THNΔ35, […] dopamine, relative to mean activity with 0 µM DA, replicates) was 3.12%. For the same compound, the “Tonset with DA” value ([6]; TH + two-fold molar ratio of DA, mean ± SD, without DA 43.3 ± 0.2) was 45.2 ± 0.6 °C, the “Tmax with DA” value ([6]; TH + two-fold molar ratio of DA, mean ± SD, without DA 54.9 ± 0.4) was 58.6 ± 0.6 °C and the “T max, TH+DA” value [6, 8] was 59.32 °C and 58.94 °C and 58.11 °C and 58.01 °C. The “T onset, TH+DA” value [6, 8] was 45.07 °C and 45.48 °C and 44.42 °C and 45.76 °C, the IC50 ([7]; THNΔ70, mean ± SD, n = 3, 37 °C, 50 µM L-Tyr, 200 µM BH4) was 19.4 ± 5.6 µM and the remaining activity at 0.2 µM ([7]; read-out: Relative TH activity, THNΔ70, 0.20 µM dopamine, relative to mean activity with 0 µM DA, replicates) was 113%. It also gave a remaining activity at 12.58 µM ([7]; read-out: Relative TH activity, THNΔ70, […] µM dopamine, relative to mean activity with 0 µM DA, replicates) of 74.6%, a remaining activity at 50.31 µM ([7]; read-out: Relative TH activity, THNΔ70, 50.31 µM dopamine, relative to mean activity with 0 µM DA, replicates) of 35.7% and a remaining activity at 201.25 µM ([7]; read-out: Relative TH activity, THNΔ70, 201.25 µM dopamine, relative to mean activity with 0 µM DA, replicates) of 13.3%.
